pIC50: −log10 of the molar value. Where a name gives a salt, the structure may show the parent alone. Read-outs that look alike come from different tables or passages of the source.
Assays:
[1] = Cytotoxicity on macrophages infected with L. donovani; format: cell-based, mouse; settings: mouse
P. falciparum strain K1 = assay: In vitro activity against P. falciparum, serial drug dilution assay; settings: for pIC50: Plasmodium falciparum; for selectivity ratio: rat
Procedure: (§1) Drug stock solutions (10mg/ml) were in DMSO (100%). […] Selectivity index (SI) was calculated as IC50 L6 cells/IC50 parasite.

[2] = tested on: axenic amastigotes of L. donovani, strain MHOM-ET-67/L82; assay: In vitro activity against L. donovani axenic amastigotes, serial drug dilution assay; format: cell-based, Leishmania donovani; settings: Leishmania donovani
Procedure: as §1

[3] = tested on: T. cruzi, strain Tulahuen C4, intracellular amastigotes; assay: microbe, parasite or virus in culture; settings: for pIC50: Trypanosoma cruzi, TULAHUEN
Procedure: as §1

Cytotoxicity on L6 cells = settings: rat
Procedure: as §1

[4] = tested on: T. b. rhodesiense strain STIB 900, trypomastigotes; assay: In vitro activity against T. b. rhodesiense, serial drug dilution assay; settings: for pIC50: Trypanosoma brucei; for selectivity ratio: rat
Procedure: as §1

[5] = tested on: intracellular amastigotes of L. donovani strain MHOM-ET-67/L82; assay: Activity against Leishmania donovani intracellular amastigotes in mouse peritoneal macrophages; settings: Leishmania donovani, Peritoneal macrophage, in Mus musculus
Procedure: After 24 h 1.2 x 10^5 amastigote L. donovani in 100 μl were added. The amastigotes were taken from an axenic culture grown at pH 5.4. Four hours later, the medium containing free amastigote forms was removed and replaced by fresh medium. The next day the medium was replaced by medium with or without a serial drug dilution of seven 3-fold dilution steps covering a range from 30 to 0.04 μg/ml. Parasite growth in the presence of the drug was compared to control wells. After 96 h of incubation, the medium was removed and the slides fixed with methanol for 10 min followed by staining with a 10% Giemsa solution. Infected and non-infected macrophages were counted for the control cultures and those exposed to the serial drug dilutions. The infection rates were determined. The results were expressed as a percentage reduction in parasite burden compared to control wells, and the IC50 was calculated by linear regression analysis. The collection of mouse peritoneal macrophages was done at the Swiss Tropical and Public Health Institute (Basel) according to the rules and regulations for the protection of animal rights ("Tierschutzverordnung") of the Swiss "Bundesamt für Veterinärwesen".

[6] = mouse peritoneal macrophages infected with L. donovani, macrophages infected with L. donovani, read-out: IC50 Cytotox. mac.inf.
[7] = axenic amastigotes, strain MHOM-ET-67/L82, means of two independent assays, read-out: IC50 L. don. axen.
[8] = L6 cells, IC50 Cytotox. L6, L6 cells, means of two independent assays
[9] = 96 h, read-out: IC50 L. don. intracell
[10] = macrophages infected with L. donovani, read-out: IC50 Cytotox. mac.inf.
[11] = infected macrophages, read-out: Cytotox. mac.inf. IC50
[12] = Selectivity index: IC50 Cytotoxicity L6/ IC50 P. falciparum
[13] = L. donovani axenic amastigotes, read-out: L. don. axen. IC50
[14] = read-out: L. don. intracell IC50

Row | SMILES | pIC50 (P. falciparum strain K1; K1, read-out: IC50 P. falc. K1) | pIC50 [2, 7] | pIC50 ([3]; read-out: IC50 T. cruzi) | pIC50 ([4]; read-out: IC50 T. b. rhod.) | pIC50 [5, 9] | IC50 at 96 h [1, 10] [µM] | pIC50 (Cytotoxicity on L6 cells; IC50 Cytotox. L6) | also measured
1 | COC(=O)N[C@H](C(=O)N[C@@H](Cc1ccccc1)[C@@H](O)CN(Cc1ccc(-c2ccccn2)cc1)NC(=O)[C@@H](NC(=O)OC)C(C)(C)C)C(C)(C)C [Atazanavir (Sulfate), Atazanavir] | 5.10 | 4.62 | 4.48 | 4.89 | < 4.43 |  |  | IC50 at 96 h [1, 6]: > 37.5 µM; pIC50 (Cytotoxicity on L6 cells; [8]): 4.33
2 | NC(=O)c1cnccn1 [Pyrazinamide] | 3.75 | < 3.09 | 3.25 | < 3.09 | < 3.61 | > 244 | 3.34 | 
3 | NNC(=O)c1ccncc1 [Isoniazide] | 3.61 | < 3.14 | 3.42 | < 3.14 | < 3.66 | > 219 | 3.22 | 
4 | COc1ccc2[nH]c([S+]([O-])Cc3ncc(C)c(OC)c3C)nc2c1 (stereo not drawn) [Omeprazole] | 4.88 | 4.04 | 4.17 | 4.29 | < 4.06 | > 86.9 | 3.90 | 
5 | c1ccc(-c2ccc(C(c3ccccc3)n3ccnc3)cc2)cc1 (stereo not drawn) [Bifonazole] | 5.50 | 5.26 | 8.52 | 4.57 | < 4.49 | > 32.2 | 4.41 | 
6 | CO[C@H]1/C=C/O[C@@]2(C)Oc3c(C)c(O)c4c(O)c(c5c(nc6cc(C)ccn65)c4c3C2=O)NC(=O)/C(C)=C\C=C\[C@H](C)[C@H](O)[C@@H](C)[C@@H](O)[C@@H](C)[C@H](OC(C)=O)[C@@H]1C [Rifaximin] | 6.04 |  |  |  |  |  | 4.06 | IC50 at 96 h [1, 11]: > 38.2 µM; selectivity ratio (P. falciparum strain K1; [12]): 96; pIC50 [2, 13]: 4.82; pIC50 ([3]; read-out: T. cruzi IC50): 4.40; pIC50 ([4]; read-out: T. b. rhod. IC50): 4.77; Activity against T. b. rhodesiense (in words) ([4]; in vitro): devoid of antitrypanosomal activity; pIC50 [5, 14]: < 4.42
7 | CCN(CCCCOC(=O)c1ccc(OC)c(OC)c1)C(C)Cc1ccc(OC)cc1 (stereo not drawn) [Mebeverine] | 5.76 | < 3.68 | 5.41 | 4.27 | 4.26 | > 69.8 | 4.15 | selectivity ratio ([3]; rat, Selectivity index: IC50 Cytotoxicity L6/ IC50 T. cruzi): 18
8 | CC[C@H]1OC(=O)[C@H](C)[C@@H](O[C@H]2C[C@@](C)(OC)[C@@H](O)[C@H](C)O2)[C@H](C)[C@@H](O[C@@H]2O[C@H](C)C[C@H](N(C)C)[C@H]2O)[C@](C)(O)C[C@@H](C)C(=O)[C@H](C)[C@@H](O)[C@]1(C)O [Erythromycine (Hydrate), Erythromycine] | 5.00 | < 3.88 | 3.94 | 4.14 | < 4.40 | > 39.9 | 4.04 | 
9 | C[C@H]1c2cccc(O)c2C(=O)C2=C(O)[C@]3(O)C(=O)C(C(N)=O)=C(O)[C@@H](N(C)C)[C@@H]3[C@@H](O)[C@@H]21 [Doxycycline] |  |  |  |  |  |  |  | MCC at 96 h [1, 11]: 67.5 µM; pIC50 (P. falciparum strain K1; K1, read-out: P. falc. IC50): 5.35; pIC50 [2, 13]: 4.62; pIC50 ([3]; read-out: T. cruzi IC50): 4.41; pIC50 (Cytotoxicity on L6 cells; Cytotox. L6 IC50): 4.84; pIC50 ([4]; read-out: T. b. rhod. IC50): 4.20; pIC50 [5, 14]: < 4.65
10 | Cc1cn([C@H]2C=C[C@@H](CO)O2)c(=O)[nH]c1=O [Stavudine] | 3.73 | < 3.35 | 3.47 | 3.92 | < 3.87 |  |  | IC50 at 96 h [1, 6]: > 134 µM; pIC50 (Cytotoxicity on L6 cells; [8]): 3.57
11 | CC(C)(C)NC(=O)[C@@H]1CN(Cc2cccnc2)CCN1C[C@@H](O)C[C@@H](Cc1ccccc1)C(=O)N[C@H]1c2ccccc2C[C@H]1O [Indinavir (Sulfate), Indinavir] | 5.22 | < 3.85 | 4.03 | 4.32 | < 4.37 | > 42.3 |  | pIC50 (Cytotoxicity on L6 cells): < 3.85
12 | CCC[C@@H]1C[C@@H](C(=O)N[C@@H]([C@H]2O[C@H](SC)[C@H](O)[C@@H](O)[C@H]2O)[C@@H](C)O)N(C)C1 [Lincomycin] | 5.15 | < 3.65 | < 3.65 | < 3.65 | < 4.13 | > 73.8 | < 3.65 | 
13 | Fc1ccc([C@@H]2CCNC[C@H]2COc2ccc3c(c2)OCO3)cc1 [Paroxetine] | 5.03 | < 3.56 | 4.84 | 5.95 | < 5.04 |  | 4.86 | MCC at 96 h [1, 10]: 30.4 µM; selectivity ratio [4]: 12
14 | CN(C)CCCN1c2ccccc2Sc2ccccc21 [Promazine] | 6.31 | < 3.50 | 4.31 | 5.67 | < 4.45 | > 35.2 |  | selectivity ratio (P. falciparum strain K1; L6 cells versus P. falciparum K1, Selectivity index: IC50 Cytotoxicity L6/ IC50 P. falciparum): 61; pIC50 (Cytotoxicity on L6 cells; [8]): 4.52; selectivity ratio ([4]; L6 cells versus T. b. rhodesiense STIB 900 trypomastigotes): 14
15 | Clc1ccc(C(OCCN2CCCCC2)c2ccccc2)cc1 (stereo not drawn) [Cloperastine] | 6.06 | 3.58 | 5.02 | 5.31 | < 4.52 |  |  | MCC at 96 h ([1]; mouse peritoneal macrophages infected with L. donovani, read-out: IC50 Cytotox. mac.inf.): 90.9 µM; Activity against P. falciparum (in words) (P. falciparum strain K1; in vitro): selective activities; selectivity ratio (P. falciparum strain K1; [12]): 50; pIC50 (Cytotoxicity on L6 cells; [8]): 4.36
16 | CN(C/C=C/C#CC(C)(C)C)Cc1cccc2ccccc12 [Terbinafine (Hydrochloride), Terbinafine] | 5.11 | 4.64 | 4.39 | 4.02 | 4.16 |  |  | IC50 at 96 h [1, 6]: > 91.5 µM; pIC50 (Cytotoxicity on L6 cells; [8]): 4.33
17 | Cc1cccc(C)c1OCC(=O)N[C@@H](Cc1ccccc1)[C@@H](O)C[C@H](Cc1ccccc1)NC(=O)[C@H](C(C)C)N1CCCNC1=O [Lopinavir] | 5.72 | 4.93 | 4.81 | 4.97 | < 4.32 | > 47.7 | 4.72 | 
18 | CC(Cc1cccc(C(F)(F)F)c1)NCCOC(=O)c1ccccc1 (stereo not drawn) [Benfluorex] | 5.19 | 3.61 | 4.13 | 4.68 | 4.26 | > 85.4 | 4.31 | 
19 | NC12CC3CC(CC(C3)C1)C2 [Amantadine] | 5.25 | < 3.23 | 3.43 | 4.28 | < 3.70 | > 198 | 3.67 | 

From article PMC4535766, “Antiprotozoal Activity Profiling of Approved Drugs: A Starting Point toward Drug Repositioning” (PLoS ONE, 2015)
